{
  "source": "patent US8802384B2",
  "about": "“Method or system using biomarkers for the monitoring of a treatment” (priority 2009, dated 2014)",
  "key": {"[1]": {"system": "VEGFR2^+pY^+ cells in murine peripheral blood", "test": "murine blood samples in vivo study (HepG2-inoculated mice), flow cytometry", "settings": "50 or 100 mg/kg p.o. for 14 days", "description": "Mice, inoculated HepG2 cells, were randomized for three groups by tumor size and treated with vehicle (control), compound A1 (50 mg/kg, p.o.) or compound A1 (100 mg/kg, p.o.) for 14 days. Mice were sacrificed and whole murine blood samples were collected by aspiration from abdominal aorta or heart. The blood was hemolyzed by an hemolytic agent at room temperature for 10 min. After centrifugation (500 g, 5 min), the cells were washed by 1 mL of staining buffer. The cells were then incubated with 100 μL of staining buffer and 5 μL of VEGFR2-PE antibody for 15 min in the dark. Then, the cells were washed and incubated in 500 μL of Fixation/Permeabilization solution for 20 min and washed by Perm/Wash buffer twice. Then, a mixture of antibodies (PY-100, CD45-PerCP-Cy5.5, 5 μL of each) and phosphatase inhibitor were added and incubated for 30 min in the dark. The cells were washed and analyzed by flow cytometry (FACS Calibur, BD). The data was obtained from Cell Quest software (BD) and analyzed by WinMDI 2.9 (free software)."}, "[2]": {"system": "CD34^+CD45^dim peripheral blood cells", "test": "Phase I clinical study: CD133/CD117 subpopulations of CD34^+CD45^dim peripheral blood cells, flow cytometry", "format": "in vivo, human", "method": "Whole blood was collected on pre-treatment (day 1), and on day 2, day 8 and day 29 after treatment. The subpopulation of CD34^+CD45^dim peripheral blood cells identified from whole blood was further identified by cell surface markers of CD133 and CD117 using flow cytometry. Whole blood (800 μL) was supplemented with 4.5 mL of 0.2% BSA-PBS and centrifuged for 5 min (1500 rpm). After the removal of the supernatant by aspiration, 4.5 mL of 0.2% BSA-PBS was added and centrifuged. The cell pellet was mixed with 50 μL of human gamma-globulin. Antibodies (CD34-FITC, CD117-PE, CD45-PerCP and CD133-APC) were added and kept for 45 min at 4 C. An hemolytic agent (4.5 mL) was added and incubated for 10 min. After centrifugation (1500 rpm, 5 min), the supernatant was washed twice. Then, 0.2% BSA-PBS (4.5 mL) was added, and the supernatant was removed by centrifugation (1500 rpm, 5 min). The cell pellet was filled up to 800 μL with BSA-PBS and analyzed by flow cytometry. The percentage (quadrants) of CD34^+CD45^dimCD133+/−CD117+/− cells were analyzed."}, "HUVEC cells": {"system": "HUVEC cells", "test": "HUVEC cells experiment: phospho-tyrosine level after VEGF, flow cytometry", "format": "cell-based, Human", "settings": "exposure 3 h, 20 ng/ml VEGF 5 min; A1 and AG1478 1 and 5 μM, 5FU 1 and 5 mM; FIG. 1", "method": "FIG. 1: Effect of different compounds on the phospho-tyrosine level of HUVEC cells treated with VEGF. On the abscissa: 1 is the IgG control, untreated with VEGF and unexposed to an active ingredient; 2 is the control untreated with VEGF and unexposed to an active ingredient; 3 is the control treated with VEGF but unexposed to an active ingredient; 4 is treated with VEGF and exposed to 1 μM of compound A1; 5 is treated with VEGF and exposed to 5 μM of compound A1; 6 is treated with VEGF and exposed to 1 μM of compound AG1478; 7 is treated with VEGF and exposed to 5 μM of compound AG 1478; 8 is treated with VEGF and exposed to 1 mM of compound 5FU; 9 is treated with VEGF and exposed to 5 mM of compound 5FU. HUVEC cells were exposed to compound A1 (1 μM and 5 μM), to the EGFR inhibitor AG1478 (1 μM and 5 μM) and to 5FU (5-fluorouracile, 1 mM and 5 mM) for 3 h and 20 ng/ml of VEGF were added for 5 min before cell collection. Collected cells were washed twice by PBS and centrifugation (300 g, 5 min) in 50 μL of staining buffer. After removal of the supernatant by aspiration, cell pellets were lysed in 250 μL of fixation/permeabilization solution and kept for 20 min on ice. The PY-100 Alexa 488 antibody and phosphatase inhibitor were added. […] The data was obtained from Cell Quest software (BD) and analyzed by WinMDI 2.9 (free software)."}, "[3]": {"settings": "responders, not significant, FIG. 5A"}},
  "data": [
    {"smiles": "CCS(=O)(=O)O.COC(=O)c1ccc2c(c1)NC(=O)/C2=C(\\Nc1ccc(N(C)C(=O)CN2CCN(C)CC2)cc1)c1ccccc1", "note": "[compound A1, 3-Z-[1-(4-(N-((4-methyl-piperazin-1-yl)-methylcarbonyl)-N-methyl-amino)-anilino)-1-phenyl-methylene]-6-methoxycarbonyl-2-indolinone-monoethanesulphonate]", "values": [
      {"measurement": "number of VEGFR2^+CD45^dimpY^+ cells", "setting": "[1]; FIG. 2", "value": "seems to decrease"},
      {"measurement": "VEGFR2^+pY^+ cells in murine peripheral blood", "setting": "[1]; FIG. 3", "value": "suppressed"},
      {"measurement": "CD34^+CD45^dimCD133^+CD117^+ cells in responders (stable disease) compared to non-responders", "setting": "[2]; after treatment, RES n=12, PD n=4, FIG. 5B", "value": "tended to decrease"},
      {"measurement": "percentage of CD34^+CD45^dimCD133^+CD117^+ cells", "setting": "[2]; patients with advanced solid tumors, day 29 compared with pre-treatment, p<0.001, FIG. 4A", "value": "significantly increased"},
      {"measurement": "percentage of CD34^+CD45^dimCD133^−CD117^+ cells", "setting": "[2]; patients with advanced solid tumors, day 29 compared with pre-treatment, p<0.01, FIG. 4A", "value": "decreased"},
      {"measurement": "CD34^+CD45^dimCD133^+ cells", "setting": "[2]; patients, day 29, FIG. 4B", "value": "significantly increased"},
      {"measurement": "CD34^+CD45^dimCD117^+ cells", "setting": "[2]; patients, day Band day 29, FIG. 4C", "value": "significantly decreased"},
      {"measurement": "CD34^+CD45^dimCD117^+ cells in responders (stable disease)", "setting": "[2]; [3]", "value": "tended to decrease"},
      {"measurement": "CD34^+CD45^dimCD133^+ cells in responders (stable disease)", "setting": "[2]; [3]", "value": "tended to decrease"},
      {"measurement": "phospho-tyrosine levels of HUVEC cells", "setting": "HUVEC cells", "value": "suppressed"}
    ]}
  ]
}
